In patent US9353089B2, “Compositions and methods for the treatment of malaria” (Saint Louis University, priority 2013, dated 2016):
pIC50: −log10 of the molar value. Read-outs that look alike come from different tables or passages of the source.

Columns and labels:
[1] = tested on: Plasmodium falciparum 3D7 (CQ-sensitive); assay: In vitro antimalarial assay (malaria SYBR Green I-based fluorescence, MSF), 3D7; assay type: cell-based
Description: Stock solutions of each test drug were prepared in DMSO at a concentration of 20 mM. The drug solutions were serially diluted with culture medium and distributed to asynchronous parasite cultures on 96-well plates in quadruplicate in a total volume of 100 μL to achieve 0.5% parasitemia with a 2% hematocrit in a total volume of 100 pt. […] After incubation, 100 μL of lysis buffer with 0.2 μL/mL SYBR Green I was added to each well.
Antimalarial potency of compounds was determined by this technique for both Plasmodium falciparum 3D7 (CQ-sensitive) and Dd2 (multi-drug resistant) strains.

[2] = target: Plasmepsin-2 (PM-2; Plm II) (Plasmodium falciparum (isolate HB3), UniProt P46925); assay: Plasmepsin-2 enzyme inhibition assay; assay type: biochemical
Description: Plasmepsin-2 (PM-2; Plm II) and Plasmepsin (PM-4; Plm IV) expression and purification was performed following the published protocols (Istvan E S and Goldberg D E, 2005). The final purified protein was activated by diluting the protein to 0.3 mg/mL in activating buffer (0.1 M citrate pH 4.5, 0.1% Tween-20, 50 mM dithiothreitol) and incubated at room temperature for 40 min, then the activated enzyme was diluted in assay buffer (50 mM sodium acetate pH 4.7, 0.01% Tween-20). The enzymatic inhibition reaction was performed in 384 well plates with a total volume of 20 μl. 10 μl of diluted PM-2 or PM-4 enzyme was added to the 384-well plate except blank wells (blank wells add 10 μL of assay buffer) and 20 nL of serials of diluted 1000× compounds were added to the wells with 520 Echo® Liquid Handling System (Labcyte Inc.). 10 μL PM-2 peptide substrate (AnaSpec, Cat#, 62050) with assay buffer was then added to final concentration of 20 μM to start the reaction. After incubation the reaction at room temperature for 60 min, the fluorescence intensity at Ex/Em=360 nm/535 nm was measured using EnVision multilabel plate reader (Perkin-Elmer). The IC50 values were obtained using Graph Pad Prism 4 and are reported in Tables 8 and 9 below as PM-2 IC50 values.

[3] = 3D7, Table 11, read-out: Pf 3D7 IC50
[4] = 3D7, Table 13, read-out: 3D7 IC50
[5] = 3D7, Table 10, read-out: Pf3D7 IC50

Plasmepsin-2 (PM-2; Plm II), sequence (P46925 125-453 limits assumed): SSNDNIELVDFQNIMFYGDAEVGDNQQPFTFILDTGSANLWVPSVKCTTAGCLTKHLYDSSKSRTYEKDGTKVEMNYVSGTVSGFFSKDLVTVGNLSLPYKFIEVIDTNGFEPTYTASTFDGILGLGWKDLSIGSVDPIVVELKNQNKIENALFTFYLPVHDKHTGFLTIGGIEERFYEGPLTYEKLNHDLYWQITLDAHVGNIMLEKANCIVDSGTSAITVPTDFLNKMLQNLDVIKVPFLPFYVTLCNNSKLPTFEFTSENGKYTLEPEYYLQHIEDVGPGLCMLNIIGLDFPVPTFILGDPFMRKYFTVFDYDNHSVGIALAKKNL

| Compound | pIC50 [1, 4] | pIC50 ([2]; Table 13, read-out: PM-2 IC50) | also measured |
| --- | --- | --- | --- |
| COc1cccc(C2(c3ccccc3)NC(=N)N(C3CCCCC3)C2=O)c1 (stereo not shown) [Example 153, 3-cyclohexyl-2-imino-5-(3-methoxyphenyl)-5-phenylimidazolidin-4-one] | 6.04 | 7.60 | pIC50 [1, 3]: 6.04 |
| COc1cccc(C2(c3cccc(-c4cccnc4)c3)NC(=N)N(C3CCCCC3)C2=O)c1 (stereo not shown) [Example 214, 3-cyclohexyl-2-imino-5-(3-methoxyphenyl)-5-[3-(pyridin-3-yl)phenyl]-imidazolidin-4-one] | 6.10 | 7.92 | pIC50 [1, 3]: 6.10 |
| Cc1ccc(C2(c3ccc(C)cc3)NC(=N)N(C3CCCCC3)C2=O)cc1 [Example 156, 3-cyclohexyl-2-imino-5,5-bis(4-methylphenyl)-imidazolidin-4-one] | 5.90 | 7.85 | pIC50 [1, 3]: 5.90 |
| COc1ccc(C2(c3ccc(OC)cc3)NC(=N)N(Cc3ccccc3OC)C2=O)cc1 [Example 248, 2-imino-5,5-bis(4-methoxyphenyl)-3-[(2-methoxyphenyl)-methyl]imidazolidin-4-one] | 6.53 | 7.55 |  |
| COc1ccc(C2(c3ccc(OC)cc3)NC(=S)N(C3CCCCC3)C2=O)cc1 |  |  | pIC50 ([1]; 3D7, Table 8, read-out: Pf 3D7 IC50): < 5.30; pIC50 ([2]; Table 8, read-out: PM-II IC50): < 5.00 |
| COc1ccc(C2(c3ccc(OC)cc3)NC(=N)N(Cc3ccccc3)C2=O)cc1 [Example 162, 3-benzyl-2-imino-5,5-bis(4-methoxyphenyl)-imidazolidin-4-one] | 6.07 | 8.14 | pIC50 [1, 5]: 6.07 |
| COc1ccc(C2(c3ccc(OC)cc3)NC(=N)N(CC(C)(C)C)C2=O)cc1 [Example 252, 3-(2,2-dimethylpropyl)-2-imino-5,5-bis(4-methoxyphenyl)-imidazolidin-4-one] | 6.58 | 8.28 |  |
| N=C1NC(c2ccccc2Cl)(c2ccccc2Cl)C(=O)N1C1CCCCC1 [Example 202, 5,5-bis(2-chlorophenyl)-3-cyclohexyl-2-iminoimidazolidin-4-one] | 6.46 | 5.17 |  |
| COc1ccc(C2(c3ccccc3)NC(=N)N(C3CCCCC3)C2=O)cc1 (stereo not shown) [Example 141, 3-cyclohexyl-2-imino-5-(4-methoxyphenyl)-5-phenylimidazolidin-4-one] | 6.27 | 7.97 | pIC50 [1, 3]: 6.27 |
| CN1C(=N)NC(c2ccccc2)(c2cccc(-c3cccnc3)c2)C1=O (stereo not shown) [Example 135, 2-imino-3-methyl-5-phenyl-5-[3-(pyridin-3-yl)phenyl]-imidazolidin-4-one] |  |  | pIC50 ([2]; Table 12, read-out: PM-2 IC50): 6.00 |
| N=C1NC(c2ccccc2)(c2cccc(-c3ccncc3)c2)C(=O)N1C1CCCCC1 (stereo not shown) [Example 211, 3-cyclohexyl-2-imino-5-phenyl-5-[3-(pyridin-4-yl)phenyl]-imidazolidin-4-one] | 5.99 | 7.85 |  |
| COc1ccc(C2(c3cccc(-c4ccccc4)c3)NC(=N)N(C3CCCCC3)C2=O)cc1 (stereo not shown) [Example 177, 3-cyclohexyl-2-imino-5-(4-methoxyphenyl)-5-(3-phenylphenyl)-imidazolidin-4-one] | 5.83 | 7.93 | pIC50 [1, 3]: 5.83 |
| COc1ccc(C2(c3ccc(OC)cc3)NC(=N)N(C3CCC3)C2=O)cc1 [Example 204, 3-cyclobutyl-2-imino-5,5-bis(4-methoxyphenyl)-imidazolidin-4-one] | 6.14 | 7.17 | pIC50 [1, 5]: 6.14 |
| COc1ccc(C2(c3ccc(OC)c(OC)c3)NC(=N)N(C3CCCCC3)C2=O)cc1OC [Example 173, 3-cyclohexyl-5,5-bis(3,4-dimethoxy-phenyl)-2-imino-imidazolidin-4-one] | 6.21 | 7.26 |  |
| N=C1NC(c2ccc(Cl)cc2)(C2CCCCC2)C(=O)N1C1CCOCC1 (stereo not shown) [Example 574, 5-(4-chlorophenyl)-5-cyclohexyl-2-imino-3-(tetrahydro-2H-pyran-4-yl)imidazolidin-4-one] | 6.57 |  |  |
| N=C1NC(c2ccccc2O)(C2CC2)C(=O)N1C1CCCCC1 (stereo not shown) [Example 573, 3-cyclohexyl-5-cyclopropyl-5-(2-hydroxyphenyl)-2-iminoimidazolidin-4-one] | < 4.70 |  |  |
| N=C1NC(c2ccc(O)cc2)(c2ccc(O)cc2)C(=O)N1C1CCOCC1 [Example 550, 5,5-bis(4-hydroxyphenyl)-2-imino-3-(tetrahydro-2H-pyran-4-yl)imidazolidin-4-one] | 5.61 |  |  |

| Compound | pIC50 [1, 4] | pIC50 ([2]; Table 13, read-out: PM-2 IC50) | also measured |
| --- | --- | --- | --- |
| N=C1NC(c2cccc(-c3cncc(Cl)c3)c2)(C2CCCCC2)C(=O)N1C1CCOCC1 (stereo not shown) [Example 516, 5-(3-(5-chloropyridin-3-yl)phenyl)-5-cyclohexyl-2-imino-3-(tetrahydro-2H-pyran-4-yl)imidazolidin-4-one] | 6.55 |  |  |
| N=C1NC(c2cccc(Cl)c2)(c2cccc(Cl)c2)C(=O)N1C1CCCCC1 [Example 267, 5,5-bis(3-chlorophenyl)-3-cyclohexyl-2-iminoimidazolidin-4-one] | 5.97 |  | pIC50 [1, 3]: 5.97 |
| N=C1NC(c2ccc(Cl)cc2)(C2CCCCC2)C(=O)N1C1CCCCC1 (stereo not shown) [Example 575, 5-(4-chlorophenyl)-3,5-dicyclohexyl-2-iminoimidazolidin-4-one] | 5.96 |  |  |
| COc1ccc(C2(c3ccc(OC)cc3)NC(=N)N(Cc3ccccn3)C2=O)cc1 [Example 229, 2-imino-5,5-bis(4-methoxyphenyl)-3-(pyridin-2-ylmethyl)-imidazolidin-4-one] | 6.17 |  |  |
| N=C1NC(c2cccc(O)c2)(C2CC2)C(=O)N1C1CCCCC1 (stereo not shown) [Example 549, 3-cyclohexyl-5-cyclopropyl-5-(3-hydroxyphenyl)-2-iminoimidazolidin-4-one] | 5.88 |  |  |
| N#Cc1cccc(-c2cccc(C3(c4ccccc4)NC(=N)N(C4CCOCC4)C3=O)c2)c1 (stereo not shown) [Example 413, 3′-(2-imino-5-oxo-4-phenyl-1-(tetrahydro-2H-pyran-4-yl)imidazolidin-4-yl)-[1,1′-biphenyl]-3-carbonitrile] | 5.70 |  |  |
| COc1cccc(C2(c3cccc(-c4ccccn4)c3)NC(=N)N(C3CCCCC3)C2=O)c1 (stereo not shown) [Example 227, 3-cyclohexyl-2-imino-5-(3-methoxyphenyl)-5-[3-(pyridin-2-yl)phenyl]-imidazolidin-4-one] | 6.18 |  |  |
| COc1ccccc1C1(C2CC2)NC(=N)N(C2CCOCC2)C1=O (stereo not shown) [Example 518, 5-cyclopropyl-2-imino-5-(2-methoxyphenyl)-3-(tetrahydro-2H-pyran-4-yl)imidazolidin-4-one] | 5.27 |  |  |
| CNC(=O)c1cccc(C2(c3ccccc3)NC(=N)N(C3CCCCC3)C2=O)c1 (stereo not shown) [Example 273, 3-(1-cyclohexyl-2-imino-5-oxo-4-phenylimidazolidin-4-yl)-N-methylbenzamide] | 5.86 |  |  |
| CC#Cc1cncc(-c2cccc(C3(C4CC4)NC(=N)N(C4CCCCC4)C3=O)c2)c1 (stereo not shown) [Example 515, 3-cyclohexyl-5-cyclopropyl-2-imino-5-(3-(5-(prop-1-yn-1-yl)pyridin-3-yl)phenyl)imidazolidin-4-one] | 6.09 |  |  |
| COc1ccc(C2(c3ccc(OC)cc3)NC(=N)N(C3CCN(Cc4ccccc4O)CC3)C2=O)cc1 [Example 571, 3-(1-(2-hydroxybenzyl)piperidin-4-yl)-2-imino-5,5-bis(4-methoxyphenyl)-imidazolidin-4-one] | 6.40 |  |  |
| CC(C)COc1cccc(C2(c3cccc(OCC(C)C)c3)NC(=N)N(C3CCOCC3)C2=O)c1 [Example 389, 2-imino-5,5-bis[3-(2-methylpropoxy)phenyl]-3-(oxan-4-yl)imidazolidin-4-one] | < 5.30 |  |  |
| N=C1NC(c2cccc(Cl)c2)(C2CC2)C(=O)N1C1CCOCC1 (stereo not shown) [Example 495, 5-(3-chlorophenyl)-5-cyclopropyl-2-imino-3-(tetrahydro-2H-pyran-4-yl)imidazolidin-4-one] | 6.03 |  |  |
| N#Cc1cccc(-c2cccc(C3(C4CC4)NC(=N)N(C4CCCCC4)C3=O)c2)c1 (stereo not shown) [Example 486, 3′-(1-cyclohexyl-4-cyclopropyl-2-imino-5-oxoimidazolidin-4-yl)-[1,1′-biphenyl]-3-carbonitrile] | 5.84 |  |  |
| CC(C)COc1ccc(C2(c3cccc(-c4cccnc4)c3)NC(=N)N(C3CCOCC3)C2=O)cc1 (stereo not shown) [Example 412, 2-imino-5-(4-isobutoxyphenyl)-5-(3-(pyridin-3-yl)phenyl)-3-(tetrahydro-2H-pyran-4-yl)imidazolidin-4-one] | 5.38 |  |  |
| COc1ccc(C2(c3ccc(OC)cc3)NC(=N)N(Cc3ccccc3F)C2=O)cc1 [Example 306, 3-[(2-fluorophenyl)-methyl]-2-imino-5,5-bis(4-methoxyphenyl)-imidazolidin-4-one] | 5.28 |  |  |
| COc1ccc(C2(c3ccc(OC)cc3)NC(=N)N(Cc3ccc(C)cc3)C2=O)cc1 [Example 231, 2-imino-5,5-bis(4-methoxyphenyl)-3-[(4-methylphenyl)-methyl]imidazolidin-4-one] | 6.10 |  |  |
